Measured values from patent publication US20110294810A1, “SUBSTITUTED (PYRIDYL)-AZINYLAMINE DERIVATIVES AS PLANT PROTECTION AGENTS” (priority 2008, published 2011).
Like-named read-outs stand apart in the source and are kept apart here.

Test: Measurement of logP values by HPLC on reversed phase columns (EEC directive 79/831 Annex V.A8)
Format: physicochemical
Conditions: for chromatographic logP: reversed phase HPLC column
[1] = HPLC on reversed phase columns, usually LC-MS at pH 2.7 with 0.1% formic acid in water and acetonitrile, linear gradient 10% to 95% acetonitrile
[2] = HPLC on reversed phase columns, usually LC-MS at pH 2.7 with 0.1% formic acid in water and acetonitrile, linear gradient 10% to 95% acetonitrile, read-out: log p

Compound	log p (pH 2.7)	other results
CC1CCCN1Cc1cc(-c2ccnc(Nc3cccc(Cl)c3)n2)ccn1 (stereo not shown) [Compound A46]		log p [1]: 1.76
CC1(C)CCCN(Cc2cc(-c3ccnc(Nc4cccc(Cl)c4)n3)ccn2)C1 [Compound A45]		log p [1]: 2.1
CN(C)C1CCN(Cc2cc(-c3ccnc(Nc4cccc(Cl)c4)n3)ccn2)CC1 [Example A56]		log p [1]: 1.1
COCC(=S)NCc1cc(-c2ccnc(Nc3cccc(Cl)c3)n2)ccn1 [Compound A16]	3.29	
NCc1cc(-c2ccnc(Nc3cccc(Cl)c3)n2)ccn1 [Compound A1, 4-[2-(aminomethyl)pyridin-4-yl]-N-(3-chlorophenyl)pyrimidin-2-amine]		chromatographic logP [2]: 1.52
CN(C)CCN(C)Cc1cc(-c2ccnc(Nc3cccc(Cl)c3)n2)ccn1 [Compound A58]		log p [1]: 1.44
CN1CCC(N(C)Cc2cc(-c3ccnc(Nc4cccc(Cl)c4)n3)ccn2)CC1 [Compound A63]		log p [1]: 1.07
CCOC(=O)C1CCCN(Cc2cc(-c3ccnc(Nc4cccc(Cl)c4)n3)ccn2)C1 (stereo not shown) [Example A57]		log p [1]: 1.98
CCCCSCc1cc(-c2ccnc(Nc3cccc(Cl)c3)n2)ccn1 [Compound A71]	4.56	
CC(C)CC(=O)OCc1cc(-c2ccnc(N(C(=O)CC(C)C)c3cccc(Cl)c3)n2)ccn1 [Example A27]	4.56	
COCc1cc(-c2ccnc(N(C)c3cccc(Cl)c3)n2)ccn1 [Compound A25, N-(3-chlorophenyl)-4-[2-(methoxymethyl)pyridin-4-yl]-N-methylpyrimidin-2-amine]		chromatographic logP [2]: 3.02
C=CCC(=O)OCc1cc(-c2ccnc(Nc3cccc(Cl)c3)n2)ccn1 [Compound A37, (4-{2-[(3-chlorophenyl)amino]pyrimidin-4-yl}pyridin-2-yl)methyl but-3-enoate]		chromatographic logP [2]: 3.64
Clc1cccc(Nc2nccc(-c3ccnc(CN4CCOCC4)c3)n2)c1 [Example A50]	1.6	
C=CCN(C)Cc1cc(-c2ccnc(Nc3cccc(Cl)c3)n2)ccn1 [Compound A59]		log p [1]: 1.75
CCOCCNCc1cc(-c2ccnc(Nc3cccc(Cl)c3)n2)ccn1 [Example A95]	1.84	
CCN(CC)Cc1cc(-c2ccnc(Nc3cccc(Cl)c3)n2)ccn1 [Compound A53]	1.78	
Clc1cccc(Nc2nccc(-c3ccnc(CN4CCCC4)c3)n2)c1 [Example A47]		log p [1]: 1.7
CC(NC(=O)C1CC1)c1cc(-c2ccnc(Nc3cccc(Cl)c3)n2)ccn1 (stereo not shown) [Compound A93]	2.64	
CC(C)(C)OC(=O)NCc1cc(-c2ncnc(Nc3cccc(Cl)c3)n2)ccn1 [Compound C1]	3.1	
CN(C)CCSCc1cc(-c2ccnc(Nc3cccc(Cl)c3)n2)ccn1 [Example A82]	1.75	
CN(Cc1cc(-c2ccnc(Nc3cccc(Cl)c3)n2)ccn1)C(C)(C)C [Example A43]	1.84	
C=CCSCc1cc(-c2ccnc(Nc3cccc(Cl)c3)n2)ccn1 [Example A75]	3.8	
N#CCCCCSCc1cc(-c2ccnc(Nc3cccc(Cl)c3)n2)ccn1 [Compound A76]	3.35	
CCSCCN(C=O)Cc1cc(-c2ccnc(Nc3cccc(Cl)c3)n2)ccn1 [Compound A96]	3.17	

Compound	log p (pH 2.7)	other results
CC(NC(=O)C1CC1)c1cc(-c2ccnc(N(C(=O)C3CC3)c3cccc(Cl)c3)n2)ccn1 (stereo not shown) [Compound A92]	2.49	
C=COC(=O)NCc1cc(-c2ncnc(Nc3cccc(Cl)c3)n2)ccn1 [Compound C5]	2.84	
CC(=O)OC(C)c1cc(-c2ccnc(Nc3cccc(Cl)c3)n2)ccn1 (stereo not shown) [Compound A98, 1-(4-{2-[(3-chlorophenyl)amino]pyrimidin-4-yl}pyridin-2-yl)ethyl acetate]		chromatographic logP (HPLC on reversed phase columns, usual method: LC-MS at pH 2.7, 0.1% formic acid in water / acetonitrile, linear gradient 10% to 95% acetonitrile, read-out: logP): 3.33
CCC(C)CNC(=S)NCc1cc(-c2ccnc(Nc3cccc(Cl)c3)n2)ccn1 (stereo not shown) [Compound A6, 1-[(4-{2-[(3-chlorophenyl)amino]pyrimidin-4-yl}pyridin-2-yl)methyl]-3-(2-methylbutyl)thiourea]		chromatographic logP [2]: 3.59
O=C(OCc1cc(-c2ccnc(N(C(=O)C3CCCC3)c3cccc(Cl)c3)n2)ccn1)C1CCCC1 [Example A35]	4.86	
Clc1cccc(Nc2nccc(-c3ccnc(CN4CCCCC4)c3)n2)c1 [Compound A17, N-(3-chlorophenyl)-4-[2-(piperidin-1-ylmethyl)pyridin-4-yl]pyrimidin-2-amine]		chromatographic logP [2]: 1.81
CCCCCSCc1cc(-c2ccnc(Nc3cccc(Cl)c3)n2)ccn1 [Example A74]	5.08	
CN(CCC#N)Cc1cc(-c2ccnc(Nc3cccc(Cl)c3)n2)ccn1 [Compound A64]	1.74	
CC(c1cc(-c2ccnc(N(C(=O)C3CC3)c3cccc(Cl)c3)n2)ccn1)N(C(=O)C1CC1)C(=O)C1CC1 (stereo not shown) [Compound A91]	3.71	
CCCCN(C)Cc1cc(-c2ccnc(Nc3cccc(Cl)c3)n2)ccn1 [Compound A38]		log p [1]: 1.97
ClCc1cc(-c2ccnc(Nc3cccc(Cl)c3)n2)ccn1 [Compound A15, 4-[2-(chloromethyl)pyridin-4-yl]-N-(3-chlorophenyl)pyrimidin-2-amine]		chromatographic logP [2]: 3.46
COCC(=O)NC(C)c1cc(-c2ccnc(N(C(=O)COC)c3cccc(Cl)c3)n2)ccn1 (stereo not shown) [Compound A81]	2.11	
CCOC(=O)NCc1cc(-c2ncnc(Nc3cccc(Cl)c3)n2)ccn1 [Compound C4, ethyl[(4-{4-[(3-chlorophenyl)amino]-1,3,5-triazin-2-yl}pyridin-2-yl)methyl]carbamate]		chromatographic logP (LC-MS at pH 2.7, 0.1% formic acid in water / acetonitrile, gradient 10% to 95% acetonitrile, read-out: log p): 2.64
CC(C)C(=O)OCc1cc(-c2ccnc(N(C(=O)C(C)C)c3cccc(Cl)c3)n2)ccn1 [Example A32]	3.83	
O=C(NCc1cc(-c2ccnc(Nc3cccc(Cl)c3)n2)ccn1)C1CC1 [Compound A12]	2.39	
CC(C)(C)C(=O)OCc1cc(-c2ccnc(N(C(=O)C(C)(C)C)c3cccc(Cl)c3)n2)ccn1 [Example A30]	4.7	
CC(C)OC(=O)NCc1cc(-c2ncnc(Nc3cccc(Cl)c3)n2)ccn1 [Compound C3]	2.94	
NCc1cc(-c2ncnc(Nc3cccc(Cl)c3)n2)ccn1 [Compound C6, 4-[2-(aminomethyl)pyridin-4-yl]-N-(3-chlorophenyl)-1,3,5-triazin-2-amine]		chromatographic logP (LC-MS at pH 7.8, 0.001 molar ammonium hydrogen carbonate in water, gradient 10% to 95% acetonitrile, read-out: log p [c]): 1.74
CCSCc1cc(-c2ccnc(Nc3cccc(Cl)c3)n2)ccn1 [Compound A69, N-(3-chlorophenyl)-4-{2-[(ethylsulfanyl)methyl]pyridin-4-yl}pyrimidin-2-amine]		chromatographic logP [2]: 3.64
CSCc1cc(-c2ccnc(Nc3cccc(Cl)c3)n2)ccn1 [Example A67]		log p [1]: 3.17
CN(Cc1cc(-c2ccnc(Nc3cccc(Cl)c3)n2)ccn1)CC1OCCO1 [Compound A44]		log p [1]: 1.79
C#CCN(C)Cc1cc(-c2ccnc(Nc3cccc(Cl)c3)n2)ccn1 [Example A39]		log p [1]: 1.75
O=C(NCc1cc(-c2ccnc(Nc3cccc(Cl)c3)n2)ccn1)C1CCCC1 [Example A3]	2.88	

Second part, led by results:

log p (pH 2.7)	Compound	other results
3.92	C=C(C)CC(=O)OCc1cc(-c2ccnc(Nc3cccc(Cl)c3)n2)ccn1 [Compound A88]	
3.67	CCOC(=O)CCSCc1cc(-c2ccnc(Nc3cccc(Cl)c3)n2)ccn1 [Example A85]	
4.41	O=C(OCc1cc(-c2ccnc(Nc3cccc(Cl)c3)n2)ccn1)C1CCCC1 [Compound A36]	
2.68	COCC(=O)NC(C)c1cc(-c2ccnc(Nc3cccc(Cl)c3)n2)ccn1 (stereo not shown) [Compound A80]	
1.79	CC(C)N(C)Cc1cc(-c2ccnc(Nc3cccc(Cl)c3)n2)ccn1 [Example A42]	
2.6	C=C(C)C(=O)NCc1cc(-c2ccnc(Nc3cccc(Cl)c3)n2)ccn1 [Example A8]	
2.33	COCC(=O)NCc1cc(-c2ccnc(Nc3cccc(Cl)c3)n2)ccn1 [Example A11]	
4.97	CC(C)CCSCc1cc(-c2ccnc(Nc3cccc(Cl)c3)n2)ccn1 [Example A86]	
2.8	CCCC(=O)NC(C)c1cc(-c2ccnc(Nc3cccc(Cl)c3)n2)ccn1 (stereo not shown) [Compound A90]	
3.73	Clc1cccc(Nc2nccc(-c3ccnc(CI)c3)n2)c1 [Example A68]	
3.83	COCC(C)C(=O)OC(C)c1cc(-c2ccnc(Nc3cccc(Cl)c3)n2)ccn1 (stereo not shown) [Compound A99]	
2.88	CC(C)(C)C(=O)NCc1cc(-c2ccnc(Nc3cccc(Cl)c3)n2)ccn1 [Compound A13]	
4.26	CC(C)CC(=O)OCc1cc(-c2ccnc(Nc3cccc(Cl)c3)n2)ccn1 [Compound A21]	
2.84	CC(C)CC(=O)NCc1cc(-c2ccnc(Nc3cccc(Cl)c3)n2)ccn1 [Compound A9]	
3.83	CCCC(=O)OCc1cc(-c2ccnc(Nc3cccc(Cl)c3)n2)ccn1 [Example A20]	
3.13	COCCC(=O)OCc1cc(-c2ccnc(Nc3cccc(Cl)c3)n2)ccn1 [Example A34]	
4.29	CCCCC(=O)OCc1cc(-c2ccnc(Nc3cccc(Cl)c3)n2)ccn1 [Example A23]	
1.81	CCCN(C)Cc1cc(-c2ccnc(Nc3cccc(Cl)c3)n2)ccn1 [Compound A65]	
5	CCC(C)CSCc1cc(-c2ccnc(Nc3cccc(Cl)c3)n2)ccn1 (stereo not shown) [Compound A77]	
4.31	CC(C)(C)C(=O)OCc1cc(-c2ccnc(Nc3cccc(Cl)c3)n2)ccn1 [Example A24]	
1.66	CCN(C)Cc1cc(-c2ccnc(Nc3cccc(Cl)c3)n2)ccn1 [Compound A52]	
2.52	CC(C)C(=O)NCc1cc(-c2ccnc(Nc3cccc(Cl)c3)n2)ccn1 [Compound A2, N-[(4-{2-[(3-chlorophenyl)amino]pyrimidin-4-yl}pyridin-2-yl)methyl]-2-methyl propanamide]	
3.44	CCC(=O)OCc1cc(-c2ccnc(Nc3cccc(Cl)c3)n2)ccn1 [Example A22]	
